Values of other authors, collected in US20040157796A1 (priority 2002, published 2004).

Columns and labels:
COX-1 = COX-1 (Homo sapiens, UniProt P23219); conditions: background statement
[1] = background statement

Sequence of COX-1 (P23219 24-599): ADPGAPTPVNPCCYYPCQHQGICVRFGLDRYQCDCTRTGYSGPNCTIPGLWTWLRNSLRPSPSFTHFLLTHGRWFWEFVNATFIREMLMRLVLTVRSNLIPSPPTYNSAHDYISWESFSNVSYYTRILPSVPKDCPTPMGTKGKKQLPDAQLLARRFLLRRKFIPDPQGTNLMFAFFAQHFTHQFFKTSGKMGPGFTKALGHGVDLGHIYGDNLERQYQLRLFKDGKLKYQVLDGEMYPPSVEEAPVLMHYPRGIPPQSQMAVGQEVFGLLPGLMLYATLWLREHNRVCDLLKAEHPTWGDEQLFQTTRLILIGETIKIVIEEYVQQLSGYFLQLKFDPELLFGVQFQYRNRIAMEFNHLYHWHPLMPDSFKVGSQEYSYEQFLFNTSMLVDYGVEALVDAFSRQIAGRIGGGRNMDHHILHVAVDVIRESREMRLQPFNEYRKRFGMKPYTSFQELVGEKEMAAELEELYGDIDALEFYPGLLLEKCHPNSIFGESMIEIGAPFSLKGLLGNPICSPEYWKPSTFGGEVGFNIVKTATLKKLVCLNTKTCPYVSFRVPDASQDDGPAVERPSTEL

What does the source list for `CCC(=O)NS(=O)(=O)c1ccc(-c2c(-c3ccccc3)noc2C)cc1` [Parecoxib, N-[[4-(5-methyl-3-phenylisoxazol-4-yl)phenyl]sulfonyl]propanamide]?
in vitro inhibitory activity against COX-1 (COX-1): weak in vitro inhibitory activity; solubility in water [1]: much more soluble

What does the source list for `Cc1onc(-c2ccccc2)c1-c1ccc(S(N)(=O)=O)cc1` [valdecoxib]?
in vitro inhibitory activity against COX-1 (COX-1): weak inhibitor; solubility in water [1]: extremely low solubility
